Source: patent publication US20240150377A1, “MODULATORS OF CYSTIC FIBROSIS TRANSMEMBRANE CONDUCTANCE REGULATOR” (VERTEX PHARMACEUTICALS INCORPORATED, priority 2020, published 2024)
Like-named read-outs stand apart in the source and are kept apart here.

How the values were obtained:
[1] = amide bond, 13-membered ring
F508del = molecular target: T1, F508del (Homo sapiens, UniProt P13569, DEL508-508); test: 3T3 assay: membrane potential optical assay for F508del correction; type: cell-based; settings: F508del NIH 3T3 cells; for Emax: NIH3T3, compared to lumacaftor in combination with acutely added 300 nM Ivacaftor, read-out: 3T3 Max Activity; for EC50: 18-24 hours at 37° C., forskolin, acutely added 300 nM Ivacaftor
T1 construct: expressed in transfected cells
T1 sequence (P13569 with tags, fused parts or gaps DEL508-508): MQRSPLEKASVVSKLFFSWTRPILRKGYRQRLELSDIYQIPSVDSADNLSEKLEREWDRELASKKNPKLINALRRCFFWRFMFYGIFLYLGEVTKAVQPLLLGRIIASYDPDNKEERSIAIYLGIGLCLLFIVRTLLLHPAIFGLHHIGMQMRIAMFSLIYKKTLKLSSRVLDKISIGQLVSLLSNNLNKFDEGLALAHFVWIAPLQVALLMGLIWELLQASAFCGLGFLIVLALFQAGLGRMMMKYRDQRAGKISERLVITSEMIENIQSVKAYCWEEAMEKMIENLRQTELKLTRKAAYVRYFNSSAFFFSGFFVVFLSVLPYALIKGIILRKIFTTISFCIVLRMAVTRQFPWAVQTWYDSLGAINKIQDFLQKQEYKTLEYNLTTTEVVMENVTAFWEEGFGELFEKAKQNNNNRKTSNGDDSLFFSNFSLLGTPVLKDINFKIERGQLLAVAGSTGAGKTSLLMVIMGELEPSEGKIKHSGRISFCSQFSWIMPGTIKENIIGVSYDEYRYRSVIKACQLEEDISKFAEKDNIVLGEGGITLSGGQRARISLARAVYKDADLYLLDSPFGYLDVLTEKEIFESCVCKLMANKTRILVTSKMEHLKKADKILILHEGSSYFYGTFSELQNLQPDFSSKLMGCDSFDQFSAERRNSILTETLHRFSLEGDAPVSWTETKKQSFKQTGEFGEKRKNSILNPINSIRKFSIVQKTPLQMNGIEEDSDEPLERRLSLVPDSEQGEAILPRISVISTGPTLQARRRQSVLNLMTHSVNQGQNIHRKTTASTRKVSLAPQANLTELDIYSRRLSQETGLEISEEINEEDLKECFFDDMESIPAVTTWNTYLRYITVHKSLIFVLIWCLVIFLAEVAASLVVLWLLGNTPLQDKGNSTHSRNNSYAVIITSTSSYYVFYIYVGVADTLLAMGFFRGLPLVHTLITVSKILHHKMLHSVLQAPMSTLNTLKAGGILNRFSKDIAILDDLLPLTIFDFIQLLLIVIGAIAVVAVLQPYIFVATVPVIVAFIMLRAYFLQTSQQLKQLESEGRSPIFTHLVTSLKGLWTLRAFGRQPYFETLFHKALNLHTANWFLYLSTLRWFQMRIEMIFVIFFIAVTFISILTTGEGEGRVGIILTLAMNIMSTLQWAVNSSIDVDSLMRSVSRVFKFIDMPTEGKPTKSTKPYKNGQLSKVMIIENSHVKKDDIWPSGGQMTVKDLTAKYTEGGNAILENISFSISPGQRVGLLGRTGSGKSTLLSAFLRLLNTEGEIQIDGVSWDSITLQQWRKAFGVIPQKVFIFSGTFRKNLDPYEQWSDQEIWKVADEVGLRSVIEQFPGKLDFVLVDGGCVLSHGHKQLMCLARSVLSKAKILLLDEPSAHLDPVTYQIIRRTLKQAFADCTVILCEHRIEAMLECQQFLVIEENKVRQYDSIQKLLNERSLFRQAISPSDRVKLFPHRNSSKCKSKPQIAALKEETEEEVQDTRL
Text: 1. Membrane Potential Optical Methods for Assaying F508del Modulation Properties of Compounds
The assay utilizes fluorescent voltage sensing dyes to measure changes in membrane potential using a fluorescent plate reader (e.g., FLIPR III, Molecular Devices, Inc.) as a readout for increase in functional F508del in NIH 3T3 cells. The driving force for the response is the creation of a chloride ion gradient in conjunction with channel activation by a single liquid addition step after the cells have previously been treated with compounds and subsequently loaded with a voltage sensing dye.
2. Identification of Corrector Compounds
To identify correctors of F508del, a single-addition HTS assay format was developed. This HTS assay utilizes fluorescent voltage sensing dyes to measure changes in membrane potential on the FLIPR III as a measurement for increase in gating (conductance) of F508del in F508del NIH 3T3 cells. The F508del NIH 3T3 cell cultures were incubated with the corrector compounds at a range of concentrations for 18-24 hours at 37° C., and subsequently loaded with a redistribution dye. The driving force for the response is a Cl^− ion gradient in conjunction with channel activation with forskolin in a single liquid addition step using a fluorescent plate reader such as FLIPR III.
Bath Solution #1: (in mM) NaCl 160, KCl 4.5, CaCl2) 2, MgCl2 1, HEPES 10, pH 7.4 with NaOH.
Chloride-free bath solution: Chloride salts in Bath Solution #1 (above) are substituted with gluconate salts.
NIH3T3 mouse fibroblasts stably expressing F508del are used for optical measurements of membrane potential. The cells are maintained at 37° C. in 5% CO2 and 90% humidity in Dulbecco's modified Eagle's medium supplemented with 2 mM glutamine, 10% fetal bovine serum, 1× NEAA, b-ME, 1×pen/strep, and 25 mM HEPES in 175 cm^2 culture flasks. For all optical assays, the cells were seeded at ˜20,000/well in 384-well Matrigel-coated plates. For the correction assays, the cells are cultured at 37° C. with and without compounds for 16-24 hours.

CFTR [2] = molecular target: T2, CFTR (Homo sapiens, UniProt P13569); test: Membrane potential dye, Enteroid Assay A; type: cell-based; settings: for Ent. A Max Activity: chloride transport as % of triple combination control (Enteroid Assay A); for EC50: human enteroid cells, 18-24 hours, acute 10 μM forskolin and 300 nM ivacaftor, read-out: Ent. A EC50
T2 sequence (P13569 with tags, fused parts or gaps DEL508-508): as above
Procedure, shortened: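 % Activity: chloride transport relative to a 3 μM/3 μM corrector pair plus 300 nM acute potentiator control. Primary human enteroid cells, 18-24 h compound exposure at 37 °C; membrane potential dye (methyl oxonol) fluorescence over 15 min after forskolin (10 μM)/IBMX (100 μM)/Compound III (300 nM) stimulation in chloride-free buffer.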

CFTR [3] = molecular target: T2, CFTR; test: Membrane potential dye, Enteroid Assay B; type: cell-based; settings: Table 6
Procedure, shortened: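 Fluorescence read over 15 min after chloride-free stimulation (10 μM forskolin, 100 μM IBMX, 300 nM Compound III) gave chloride transport, reported as % activity versus a triple-corrector/potentiator control. Beforehand, human enteroid cells had 18-24 h compound exposure at 37° C and 25 min methyl oxonol dye loading at room temperature.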

SMILES | Emax (F508del; Table 6) [%] | EC50 (F508del; Table 6) [µM] | Ent. A Max Activity (CFTR [2]; Table 6) | EC50 (CFTR [2]; Table 6) [µM] | Emax (F508del; Table 7) [%] | EC50 (F508del; Table 7) [µM] | Ent. A Max Activity (CFTR [2]; Table 7) | EC50 (CFTR [2]; Table 7) [µM] | other results
CCOC(=O)CCCCN1C(=O)c2cccc(c2)S(=O)(=O)Nc2nc(cc(-c3c(C)cccc3C)n2)OC[C@H]1CC(C)(C)C | – | – | – | – | – | – | – | – | ring closure, yield after HPLC ([1]; from CCOC(=O)CCCCN[C@@H](COc1cc(-c2c(C)cccc2C)nc(NS(=O)(=O)c2cccc(C(=O)O)c2)n1)CC(C)(C)C, HATU/DIEA, DMF, 62.0 mM, 25.0 °C, 1.0 h): 66%
CCOC(=O)COc1ccc(CN2C(=O)c3cccc(c3)S(=O)(=O)Nc3nc(cc(-c4c(C)cccc4C)n3)OC[C@H]2CC(C)(C)C)nc1 | – | – | – | – | – | – | – | – | ring closure, yield after HPLC ([1]; from CCOC(=O)COc1ccc(CN[C@@H](COc2cc(-c3c(C)cccc3C)nc(NS(=O)(=O)c3cccc(C(=O)O)c3)n2)CC(C)(C)C)nc1, HATU/DIEA, DMF, 29.1 mM, 25.0 °C, 4.0 h): 42%
COC(=O)C12CC(CN3C(=O)c4cccc(c4)S(=O)(=O)Nc4nc(cc(-c5c(C)cccc5C)n4)OC[C@H]3CC(C)(C)C)(C1)C2 | – | – | – | – | – | – | – | – | ring closure, yield after HPLC ([1]; from COC(=O)C12CC(CN[C@@H](COc3cc(-c4c(C)cccc4C)nc(NS(=O)(=O)c4cccc(C(=O)O)c4)n3)CC(C)(C)C)(C1)C2, CDMT/NMM, DMF, 29.1 mM, 25.0 °C, 60.0 h): 27%
Cc1cccc(C)c1-c1cc2nc(n1)NS(=O)(=O)c1cccc(c1)C(=O)N(C)CC(c1ccc(CC3(C(F)(F)F)CC3)cn1)O2 (stereo not shown) | – | – | – | – | – | – | – | – | ring closure, yield after HPLC ([1]; from CNCC(Oc1cc(-c2c(C)cccc2C)nc(NS(=O)(=O)c2cccc(C(=O)O)c2)n1)c1ccc(CC2(C(F)(F)F)CC2)cn1, HATU (excess NaOtBu from SNAr), THF/DMF, 49.6 mM, 25.0 °C, 3.0 h, 2 steps): 35%
Cc1cccc(C)c1-c1cc2nc(n1)NS(=O)(=O)c1cccc(c1)C(=O)N(Cc1cccc(F)n1)[C@H](CC(C)(C)C)CO2 | – | – | – | – | – | – | – | – | ring closure, yield after HPLC ([1]; from 3-[[4-(2,6-dimethylphenyl)-6-[(2R)-2-[(6-fluoro-2-pyridyl)methylamino]-4,4-dimethyl-pentoxy]pyrimidin-2-yl]sulfamoyl]benzoic acid (Dihydrochloride salt), CDMT/NMM, DMF, 25.2 mM): 66%
Cc1cccc(C)c1-c1cc2nc(n1)NS(=O)(=O)c1cccc(c1)C(=O)N(C)[C@H](C)[C@@H](c1ccc(C(C)(C)C)cc1)O2 [Compound 339] | > 60 | < 1 | ++ (++ is 30-60%) | < 1 | – | – | – | – | –
COc1ccc(CN2C(=O)c3cccc(c3)S(=O)(=O)Nc3nc(cc(-c4c(C)cccc4C)n3)OC[C@H]2CC(C)C)cc1 [Compound 347] | > 60 | < 1 | +++ (+++ is >60%) | < 1 | – | – | – | – | –
Cc1cccc(C)c1-c1cc2nc(n1)NS(=O)(=O)c1cccc(c1)C(=O)N(CCCC1CCOCC1)[C@H](CC(C)C)CO2 [Compound 353] | > 60 | < 1 | +++ (+++ is >60%) | < 1 | – | – | – | – | –
CCCCCCCCN1C(=O)c2cccc(c2)S(=O)(=O)Nc2nc(cc(-c3c(C)cccc3C)n2)OC[C@H]1CC(C)C [Compound 361] | > 60 | < 1 | +++ (+++ is >60%) | < 1 | – | – | – | – | –
CCCCCN1C(=O)c2cccc(c2)S(=O)(=O)Nc2nc(cc(-c3c(C)cccc3C)n2)OC[C@H]1CC(C)C [Compound 362] | > 60 | < 1 | +++ (+++ is >60%) | < 1 | – | – | – | – | –
Cc1cccc(C)c1-c1cc2nc(n1)NS(=O)(=O)c1cccc(c1)C(=O)N(CCC1CCN(C)CC1)[C@H](CC(C)C)CO2 [Compound 418] | > 60 | < 1 | +++ (+++ is >60%) | < 1 | – | – | – | – | –
CNC(=O)c1ccc(CN2C(=O)c3cccc(c3)S(=O)(=O)Nc3nc(cc(-c4c(C)cccc4C)n3)OC[C@H]2CC(C)C)cc1 [Compound 419] | > 60 | < 1 | +++ (+++ is >60%) | < 1 | – | – | – | – | –
Cc1cccc(C)c1-c1cc2nc(n1)NS(=O)(=O)c1cccc(c1)NC(=O)CN(C(=O)OC(C)(C)C)CCO2 [Compound 516] | > 60 | < 1 | +++ (+++ is >60%) | 3 to 30 | – | – | – | – | –
Cc1cccc(C)c1-c1cc2nc(n1)NS(=O)(=O)c1cccc(c1)C(=O)N(C)C[C@H](c1ccc(C3CC3)cc1)O2 [Compound 669] | – | – | – | – | > 60 | < 1 | ++ (++ is 30-60%) | < 1 | –
Cc1cccc(C)c1-c1cc2nc(n1)NS(=O)(=O)c1cccc(c1)C(=O)N(CCC(C)C)[C@H](CCC1(C(F)(F)F)CC1)CO2 [Compound 850] | > 60 | < 1 | +++ (+++ is >60%) | < 1 | – | – | – | – | –
Cc1cccc(C)c1-c1cc2nc(n1)NS(=O)(=O)c1cccc(c1)C(=O)N(CC(C)C)[C@H](CC(C)C)CO2 [Compound 865] | > 60 | < 1 | +++ (+++ is >60%) | < 1 | – | – | – | – | –
Cc1cccc(C)c1-c1cc2nc(n1)NS(=O)(=O)c1cccc(c1)C(=O)N(Cc1ccc(N3CCCCC3)nc1)[C@H](CC(C)C)CO2 [Compound 974] | – | – | – | – | > 60 | < 1 | +++ (+++ is >60%) | < 1 | –
Cc1cccc(C)c1-c1cc2nc(n1)NS(=O)(=O)c1cccc(c1)C(=O)N(Cc1ccc(N3CCC(C)CC3)nc1)[C@H](CC(C)C)CO2 [Compound 975] | > 60 | < 1 | +++ (+++ is >60%) | < 1 | – | – | – | – | Ent. B Max Activity (CFTR [3]; chloride transport as % of triple combination control (Enteroid Assay B)): +++ (+++ is >60%); EC50 (CFTR [3]; human enteroid cells, 18-24 hours, acute 10 μM forskolin and 300 nM ivacaftor, read-out: Ent. B EC50): < 1 µM
Cc1cccc(C)c1-c1cc2nc(n1)NS(=O)(=O)c1cccc(c1)CN(CCC(F)(F)F)[C@H](CC(C)C)CO2 [Compound 1021] | – | – | – | – | > 60 | < 1 | ++ (++ is 30-60%) | < 1 | –
Cc1cccc(C)c1-c1cc2nc(n1)NS(=O)(=O)c1cccc(c1)CN(CCCC1(C(F)(F)F)CC1)[C@H](CC(C)C)CO2 [Compound 1023] | – | – | – | – | > 60 | < 1 | ++ (++ is 30-60%) | < 1 | –
Cc1cccc(C)c1-c1cc2nc(n1)NS(=O)(=O)c1cccc(c1)CN(CCC1(C(F)(F)F)CC1)[C@H](CC(C)C)CO2 [Compound 1024] | – | – | – | – | > 60 | < 1 | ++ (++ is 30-60%) | < 1 | –
Cc1cccc(C)c1-c1cc2nc(n1)NS(=O)(=O)c1cccc(c1)CN(Cc1cnn(-c3ccccc3)c1C)[C@H](CC(C)C)CO2 [Compound 1026] | – | – | – | – | > 60 | < 1 | +++ (+++ is >60%) | < 1 | –
Cc1cccc(C)c1-c1cc2nc(n1)NS(=O)(=O)c1cccc(c1)CN(Cc1cccc3c1OC(F)(F)O3)[C@H](CC(C)C)CO2 [Compound 1029] | – | – | – | – | > 60 | < 1 | ++ (++ is 30-60%) | < 1 | –
Cc1cccc(C)c1-c1cc2nc(n1)NS(=O)(=O)c1cccc(c1)CN(CCC(C)(C)C)[C@H](CC(C)C)CO2 [Compound 1043] | > 60 | < 1 | +++ (+++ is >60%) | < 1 | – | – | – | – | –
CC(=O)N1CCC(CCN2C(=O)c3cccc(c3)S(=O)(=O)Nc3nc(cc(-c4c(C)cccc4C)n3)OC[C@H]2CC(C)C)CC1 [Compound 1107] | – | – | – | – | > 60 | < 1 | +++ (+++ is >60%) | < 1 | –
Cc1cccc(C)c1-c1cc2nc(n1)NS(=O)(=O)c1cccc(c1)C(=O)N(C)[C@H](CC1CCCCC1)O2 [Compound 1193] | > 60 | < 1 | +++ (+++ is >60%) | < 1 | – | – | – | – | –
